The values below are quoted from earlier work in patent publication US20080293821A1, “Cooling compositions” (priority 2007, published 2008).

The series deals with T1, recombinant cold-menthol receptor TRPM8 (mTRPM8) (Mus musculus, UniProt Q8R4D5).
T1 construct: host or cells: HEK293 cells (recombinant expression)
T1 sequence (Q8R4D5 whole entry): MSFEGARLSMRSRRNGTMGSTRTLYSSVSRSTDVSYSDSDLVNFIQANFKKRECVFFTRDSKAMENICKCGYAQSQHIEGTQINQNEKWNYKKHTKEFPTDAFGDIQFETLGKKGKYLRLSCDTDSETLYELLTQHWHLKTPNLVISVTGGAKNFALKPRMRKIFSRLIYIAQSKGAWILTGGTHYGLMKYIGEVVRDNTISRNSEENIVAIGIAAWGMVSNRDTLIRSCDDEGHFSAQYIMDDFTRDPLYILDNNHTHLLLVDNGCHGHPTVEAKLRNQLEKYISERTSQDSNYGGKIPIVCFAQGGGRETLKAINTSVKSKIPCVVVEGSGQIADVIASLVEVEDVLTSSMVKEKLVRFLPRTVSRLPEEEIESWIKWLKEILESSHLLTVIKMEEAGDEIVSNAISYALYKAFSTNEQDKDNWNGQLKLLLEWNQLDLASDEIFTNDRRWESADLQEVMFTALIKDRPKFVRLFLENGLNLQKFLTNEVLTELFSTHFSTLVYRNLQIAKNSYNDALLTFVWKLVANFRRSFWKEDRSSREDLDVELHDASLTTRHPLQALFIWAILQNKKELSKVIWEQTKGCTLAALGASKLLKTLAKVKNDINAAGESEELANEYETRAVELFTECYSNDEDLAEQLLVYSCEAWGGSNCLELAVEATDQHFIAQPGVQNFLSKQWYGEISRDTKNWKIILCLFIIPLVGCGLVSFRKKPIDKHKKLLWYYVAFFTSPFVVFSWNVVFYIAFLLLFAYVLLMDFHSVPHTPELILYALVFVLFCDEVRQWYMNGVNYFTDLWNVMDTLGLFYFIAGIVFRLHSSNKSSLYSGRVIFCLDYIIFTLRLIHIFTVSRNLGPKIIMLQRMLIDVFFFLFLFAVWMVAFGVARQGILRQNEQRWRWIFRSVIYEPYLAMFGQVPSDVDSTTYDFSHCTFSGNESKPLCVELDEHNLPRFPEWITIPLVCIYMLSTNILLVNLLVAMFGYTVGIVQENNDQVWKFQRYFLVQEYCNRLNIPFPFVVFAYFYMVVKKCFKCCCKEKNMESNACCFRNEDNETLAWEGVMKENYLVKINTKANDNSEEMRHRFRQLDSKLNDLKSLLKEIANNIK
The settings on record: mTRPM8 expressed in HEK293 cells, FLIPR; British Journal of Pharmacology 141, 737-745 (2004).
In the case of `C[C@@H]1CC[C@@H](C(C)(C)O)[C@H](O)C1` [PMD38], the “agonist activity on TRPM8” value is given as “agonists”.

As to `CC(C)=CCC/C(C)=C/CO` [geraniol], the “agonist activity on TRPM8” value was “agonists”.

Take `C=CC(C)(O)CCC=C(C)C` (stereo not shown) [linalool]: the “agonist activity on TRPM8” value is listed as “agonists”.

Take `CC1CCC(C(C)C)C(OC(=O)C(C)O)C1` (stereo not shown) [Frescolat ML, menthyl lactate]: the “agonist activity on TRPM8” value is on record as “agonists”.

As for `CC(CC=O)CCCC(C)(C)O` (stereo not shown) [hydroxycitronellal], the “agonist activity on TRPM8” value is reported as “agonists”.

For the compound `CNC(=O)C(C)(C(C)C)C(C)C` [WS-23, 2-Isopropyl-N,2,3-trimethylbutyramide], the “agonist activity on TRPM8” value is listed as “agonists”.

As to `CCNC(=O)C1CC(C)CCC1C(C)C` (stereo not shown) [WS-3, N-Ethyl-p-menthane-3-carboxamide], the “agonist activity on TRPM8” value is “agonists”.

Consider `C=C(C)[C@@H]1CC[C@@H](C)C[C@H]1O` [Coolact P], for which the “agonist activity on TRPM8” value is reported as “agonists”.

With `CC1CCC(C(C)C)C(OCC(O)CO)C1` (stereo not shown) [Cooling Agent 10], the “agonist activity on TRPM8” value is listed as “agonists”.

As for `CC1CCC(C(C)C)C2(C1)OCC(CO)O2` (stereo not shown) [Frescolat MGA, 6-isopropyl-9-methyl-1,4-dioxaspiro-(4,5)-decane-2-methanol], the “agonist activity on TRPM8” value is recorded as “agonists”.
